Laboratory results: patent publication US20140315797A1, “Novel N-Terminally Modified Insulin Derivatives” (priority 2010, published 2014)
Read-outs that look alike come from different tables or passages of the source. Starred links: 1 amine or outer side, 2 acyl side, 3 side chain; linkers in the order of their positions; H or OH if unused. Positions of bridges follow the written chain, without caps; N, C: chain ends. Groups on a side chain read outwards from the residue. Chains are numbered I, II in the order given. No end group written: not given here. *: point of attachment. Phe(Nα-CONH2) = NC(=O)N[C@@H](Cc1ccccc1)C(=O)*; C20 diacid = O=C(O)CCCCCCCCCCCCCCCCCCC(=O)*; C18 diacid = O=C(O)CCCCCCCCCCCCCCCCC(=O)*; C16 diacid = O=C(O)CCCCCCCCCCCCCCC(=O)*; NMe2Phe = CN(C)[C@@H](Cc1ccccc1)C(=O)*; γGlu = O=C(O)[C@H](CCC(=O)[*:2])N[*:1]; X1 = CCN(CC)[C@@H](Cc1ccccc1)C(=O)*; Hydantoyl = NC(=O)NCC(=O)*; AEEA = NCCOCCOCC(=O)O; Me2Gly = CN(C)CC(=O)*; X2 = CCN(CC)CC(=O)*

Columns and labels:
[1] = target: T1, human insulin receptor (IR-A) (Homo sapiens, UniProt P06213); test: Insulin receptor affinity, SPA antibody capture assay, 0% HSA; assay type: binding; conditions: relative to affinity of human insulin
Description: (§1) The affinity of the acylated insulin analogues of this invention for the human insulin receptor is determined by a SPA assay (Scintillation Proximity Assay) microtiterplate antibody capture assay. SPA-PVT antibody-binding beads, anti-mouse reagent (Amersham Biosciences, Cat No. PRNQ0017) are mixed with 25 ml of binding buffer (100 mM HEPES pH 7.8; 100 mM sodium chloride, 10 mM MgSO4, 0.025% Tween-20). Reagent mix for a single Packard Optiplate (Packard No. 6005190) is composed of 2.4 μl of a 1:5000 diluted purified recombinant human insulin receptor (either with or without exon 11), an amount of a stock solution of A14Tyr[^125I]-human insulin corresponding to 5000 cpm per 100 μl of reagent mix, 12 μl of a 1:1000 dilution of F12 antibody, 3 ml of SPA-beads and binding buffer to a total of 12 ml. A total of 100 μl reagent mix is then added to each well in the Packard Optiplate and a dilution series of the insulin derivative is made in the Optiplate from appropriate samples. The samples are then incubated for 16 hours while gently shaken. The phases are the then separated by centrifugation for 1 min and the plates counted in a Topcounter. The binding data were fitted using the nonlinear regression algorithm in the GraphPad Prism 2.01 (GraphPad Software, San Diego, Calif.) and affinities are expressed relative (in percentage (%)) to the affinity of human insulin.

[2] = target: T1, human insulin receptor (IR-A); conditions: relative to affinity of human insulin; […] HSA in binding buffer
Description: as §1
A related assay is also used wherein the binding buffer also contains 1.5% HSA in order to mimic physiological conditions

duodenum lumen enzymes [3] = test: Degradation of insulin analogs using duodenum lumen enzymes; conditions: degradation half time divided by that of reference insulin; rat duodenum enzymes, pH 7.4, 37° C.
Description: (§2) Degradation of insulin analogs using duodenum lumen enzymes (prepared by filtration of duodenum lumen content) from SPD rats. The assay is performed by a robot in a 96 well plate (2 ml) with 16 wells available for insulin analogs and standards. Insulin analogs ˜15 μM are incubated with duodenum enzymes in 100 mM Hepes, pH=7.4 at 37° C., samples are taken after 1, 15, 30, 60, 120 and 240 min and reaction quenched by addition of TFA. Intact insulin analogs at each point are determined by RP-HPLC. Degradation half time is determined by exponential fitting of the data and normalized to half time determined for the reference insulins, A14E, B25H, desB30 human insulin or human insulin in each assay. The amount of enzymes added for the degradation is such that the half time for degradation of the reference insulin is between 60 min and 180 min.

[4] = Chemical stability of insulin analogues formulated in lipid formulations (UPLC purity, SEC HMWP); assay type: physicochemical; conditions: lipid formulation, 25° C.
Description: Chemical stability of insulin analogues formulated in lipid formulations was assessed according to the protocol described here.
Composition of the formulation: […]
Insulin to be tested (75 μM)
The insulin to be tested (lyophilised from pH 7.5) is dissolved in propylenglycol in the dark for 16 hours. Diglycerol caprylate is added ad the mixture is stirred. Tween 20 is added and the mixture is stirred for 5 minutes. The mixture is gently agitated until it is homogeneous.
Extraction-mix: 1-butanol+0.1% (w/w) Tween80, 0.1M Na2HPO4/NaH2PO4 pH 7.0 • 1. The formulations are allowed to reach room temperature. • 2. To each Eppendorf tube 20 μl of the formulations are added. • 3. Add 490 μl 1-butanol followed by addition of 990 μl of the phosphate buffer. Vortex and incubate at RT for 30 min. • 4. Vortex again and centrifuge at RT at 14000 rpm for 20 min. Analyse the bottom aqueous phase for purity and HMWP formation.
Alternatively another extraction method can be used: • 1. The formulations are allowed to reach room temperature. • 2. To each Eppendorf tube 50 μl of the formulations are added. • 3. Add 950 μl of extraction buffer. Vortex well. Immediately after, load 800 μl (2×400 μl) for purification on the spin column. See spin protocol below. Ion Exchange on Q Spin Columns from Sartorius
(In the following all spin steps are for 5 min at 2000×g.) • 1. Apply 400 μl equilibration buffer to each spin column, and spin. Discard the flow-through. • 2. Apply 2×400 μl of each extracted sample. Spin the column between each application. Discard the flow-through. • 3. Apply 400 μl washing buffer to wash each spin column, and spin. Discard the wash. • 4. Apply 400 μl elution buffer to each spin column, and spin. Analyse the elution for purity and HMWP formation
Column: Waters BEH Shield RP18 UPLC column (2.1×100 mm, 1.7 μm)
Buffer A: 0.09M di-ammonium hydrogen phosphate pH 3.0, 10% (v/v) acetonitrile
Buffer B: 90% acetonitrile.
Column: Waters Insulin HMWP SEC column
Buffer: 500 mM NaCl, 10 mM NaH2PO4, 5 mM H3PO4, 50% (v/v) 2-propanol

duodenum lumen enzymes [5] = conditions: pH 7.4
Description: as §2

primary rat adipocytes = test: Lipogenesis in rat adipocytes; assay type: cell-based; conditions: relative potency vs human insulin, unit %
Description: As a measure of in vitro potency of the insulins of the invention, lipogenesis can be used.
Primary rat adipocytes are isolated from the epididymale fat pads and incubated with 3H-glucose in buffer containing e.g. 0.1% fat free HSA and either standard (human insulin, HI) or insulin of the invention. The labelled glucose is converted into extractable lipids in a dose dependent way, resulting in full dose response curves.

T1 sequence (P06213 28-746 isoform P06213-2 limits assumed): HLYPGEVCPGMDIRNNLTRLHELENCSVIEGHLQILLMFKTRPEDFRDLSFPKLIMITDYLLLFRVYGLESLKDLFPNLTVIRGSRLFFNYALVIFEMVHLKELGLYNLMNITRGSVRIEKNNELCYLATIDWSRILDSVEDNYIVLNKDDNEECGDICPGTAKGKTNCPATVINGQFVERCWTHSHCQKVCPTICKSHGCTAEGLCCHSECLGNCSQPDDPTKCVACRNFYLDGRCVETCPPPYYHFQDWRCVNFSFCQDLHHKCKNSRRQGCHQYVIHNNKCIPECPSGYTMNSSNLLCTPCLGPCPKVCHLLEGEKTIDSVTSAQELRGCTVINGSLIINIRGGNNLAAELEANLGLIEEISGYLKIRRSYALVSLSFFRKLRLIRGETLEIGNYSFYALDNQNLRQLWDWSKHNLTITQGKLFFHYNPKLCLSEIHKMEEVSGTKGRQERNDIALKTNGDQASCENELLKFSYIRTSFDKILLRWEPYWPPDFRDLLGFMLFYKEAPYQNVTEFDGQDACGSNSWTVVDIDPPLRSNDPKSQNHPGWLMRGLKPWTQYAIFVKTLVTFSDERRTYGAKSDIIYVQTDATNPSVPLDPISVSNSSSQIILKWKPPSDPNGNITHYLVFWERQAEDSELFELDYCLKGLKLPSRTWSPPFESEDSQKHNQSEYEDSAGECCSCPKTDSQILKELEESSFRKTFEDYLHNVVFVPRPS
T1 sequence (P06213 763-1382 partner limits assumed): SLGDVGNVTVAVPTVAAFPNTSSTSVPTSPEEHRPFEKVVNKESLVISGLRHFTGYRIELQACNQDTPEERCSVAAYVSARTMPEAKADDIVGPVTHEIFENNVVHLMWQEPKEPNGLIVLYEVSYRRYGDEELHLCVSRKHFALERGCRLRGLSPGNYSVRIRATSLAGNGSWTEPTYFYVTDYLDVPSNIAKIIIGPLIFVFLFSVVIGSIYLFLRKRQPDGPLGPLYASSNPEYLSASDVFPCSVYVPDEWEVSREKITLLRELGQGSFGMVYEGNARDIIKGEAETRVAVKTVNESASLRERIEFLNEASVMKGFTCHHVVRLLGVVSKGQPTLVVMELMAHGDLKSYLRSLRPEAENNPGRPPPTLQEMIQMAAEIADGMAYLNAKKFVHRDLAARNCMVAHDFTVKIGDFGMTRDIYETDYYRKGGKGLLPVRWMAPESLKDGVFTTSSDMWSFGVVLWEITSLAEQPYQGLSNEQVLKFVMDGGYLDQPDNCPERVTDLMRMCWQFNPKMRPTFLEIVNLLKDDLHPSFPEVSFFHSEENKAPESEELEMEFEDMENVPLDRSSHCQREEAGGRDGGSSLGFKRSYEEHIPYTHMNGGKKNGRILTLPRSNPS

Row | Substance | Relative IR-A affinity (@ 0% HSA) (%) [1] | Relative IR-A affinity (@ […] HSA) (%)e [2] | Duodenum degradation. Relative stability vs. A14E, B25H, desB30 human insulin (duodenum lumen enzymes [3]) | Duodenum degradation. Relative stability vs. A14E, B25H, desB30 human insulin (duodenum lumen enzymes [5]) | further results
1 | I: {Phe(Nα-CONH2)}-VNQHLCGSHLVEALHLVCGERGFHYTPK([AEEA-AEEA-γGlu-C20 diacid]) / II: Hydantoyl-IVEQCCTSICSLEQLENYCN (disulfide I:6-II:6, I:18-II:19, II:5-II:10) [Example 16, A1(N^α-Carbamoyl), A14E, B1(N^α-Carbamoyl), B16H, B25H, B29K(N^εeicosanedioyl-gGlu-2xOEG), desB30 human insulin] | 0.1% | 0.01% | 0.4 |  | 
2 | I: {Phe(Nα-CONH2)}-VNQHLCGSHLVEALYLVCGERGFHYPK([AEEA-AEEA-γGlu-C20 diacid]) / II: Hydantoyl-IVEQCCTSICSLEQLENYCN (disulfide I:6-II:6, I:18-II:19, II:5-II:10) [Example 28, A1G(N^αcarbamoyl), A14E, B1F(N^αcarbamoyl), B25H, desB27, B29K(N^εeicosanedioyl-gGlu-2xOEG), desB30 human insulin] | 0.7% | 0.25% | 2.1 |  | 
3 | A1(N^αDiglycolyl), A14E, B1(N^αdiglycolyl), B25H, desB27, B29K(N^εoctadecanedioyl-gGlu-2xOEG), desB30 human insulin [Example 59] |  |  |  |  | HMWP formed (%) 2 weeks [4]: 0.1%; Impurities formed (%) 2 weeks [4]: 2.4%
4 | I: {Phe(Nα-CONH2)}-VNQHLCGSHLVEALYLVCGERGFHYTPK([AEEA-AEEA-γGlu-C20 diacid]) / II: Hydantoyl-IVEQCCTSICSLEQLENYCN (disulfide I:6-II:6, I:18-II:19, II:5-II:10) [Example 15, A1(N^αCarbamoyl), A14E, B1(N^αCarbamoyl), B25H, B29K(N^εeicosanedioyl-gGlu-2xOEG), desB30 human insulin] | 0.2% | 0.02% | 0.6 |  | 
5 | I: X1-VNQHLCGSHLVEALYLVCGERGFHYTPK([AEEA-AEEA-γGlu-C18 diacid]) / II: X2-IVEQCCTSICSLEQLENYCN (disulfide I:6-II:6, I:18-II:19, II:5-II:10) [Example 2, A1(N^α,N^α-Diethyl), A14E, B1(N^α, N^α-diethyl), B25H, B29K(N^εOctadecanedioyl-gGlu-2xOEG), desB30 human insulin] | 1.7% | 0.05% |  | 0.8 | HMWP formed (%) 2 weeks [4]: 0.0%; Impurities formed (%) 2 weeks [4]: 1.7%; HMWP formed (%) 4 weeks ([4]; 4 weeks): 0.1%; Impurities formed (%) 4 weeks ([4]; 4 weeks): 3.2%
6 | I: {Phe(Nα-CONH2)}-VNQHLCGSHLVEALYLVCGERGFFYPK([γGlu-C18 diacid]) / II: Hydantoyl-IVEQCCTSICSLEQLENYCN (disulfide I:6-II:6, I:18-II:19, II:5-II:10) [Example 23, A1(N^αCarbamoyl), A14E, B1(N^αCarbamoyl), desB27, B29K(N^εoctadecanedioyl-gGlu), desB30 human insulin] | 2.7% | 0.04% |  | 6.6 | 
7 | I: NMe2Phe-VNQHLCGSHLVEALHLVCGERGFHYTPK([γGlu-C16 diacid]) / II: Me2Gly-IVEQCCTSICSLEQLENYCN (disulfide I:6-II:6, I:18-II:19, II:5-II:10) [Example 3, A1(N^α,N^α-Dimethyl), A14E, B1(N^α, N^α-dimethyl), B16H, B25H, B29K(N^εhexadecanedioyl-gGlu), desB30 human insulin] | 0.6% | 0.06% | 3.1 |  | 
8 | A1(N,N-Dimethyl), A14E, B1(N,N-dimethyl), desB27, B29K(N^εoctadecanedioyl-gGlu-2xOEG), desB30 human insulin [Example 6] | 17.0% | 0.98% |  |  | Lipogenesis in rat adipocytres (@ 0.1% HSA) rel. to human insulin (primary rat adipocytes): 0.60%
9 | I: NMe2Phe-VNQHLCGSHLVEALYLVCGERGFHYPK([γGlu-C18 diacid]) / II: Me2Gly-IVEQCCTSICSLEQLENYCN (disulfide I:6-II:6, I:18-II:19, II:5-II:10) [Example 4, A1(N^α, N^α-Dimethyl), A14E, B1(N^α, N^α-dimethyl), B25H, desB27, B29K(N^εoctadecanedioyl-gGlu), desB30 human insulin] | 1.7% | 0.03% |  | 8.6 | 
10 | I: {Phe(Nα-CONH2)}-VNQHLCGSHLVEALYLVCGERGFHYPK([AEEA-AEEA-γGlu-C18 diacid]) / II: Hydantoyl-IVEQCCTSICSLEQLENYCN (disulfide I:6-II:6, I:18-II:19, II:5-II:10) [Example 18, A1(N^αCarbamoyl), A14E, B1(N^αCarbamoyl), B25H, desB27, B29K(N^εoctadecandioyl-gGlu-2xOEG), desB30 human insulin] | 0.4% | 0.04% |  | 5.6 | 
11 | I: {Phe(Nα-CONH2)}-VNQHLCGSHLVEALYLVCGERGFFYPK([γGlu-C20 diacid]) / II: Hydantoyl-IVEQCCTSICSLEQLENYCN (disulfide I:6-II:6, I:18-II:19, II:5-II:10) [Example 21] | 1.3% | 0.07% |  | 6.2 | 
12 | I: {Phe(Nα-CONH2)}-VNQHLCGSHLVEALHLVCGERGFFYPK([AEEA-AEEA-γGlu-C20 diacid]) / II: Hydantoyl-IVEQCCTSICSLEQLENYCN (disulfide I:6-II:6, I:18-II:19, II:5-II:10) [Example 22] |  |  | 7.7 |  | 
13 | I: NMe2Phe-VNQHLCGSHLVEALYLVCGERGFHYPK([γGlu-C16 diacid]) / II: Me2Gly-IVEQCCTSICSLEQLENYCN (disulfide I:6-II:6, I:18-II:19, II:5-II:10) [Example 8, A1G(N^α,N^α-Dimethyl), A14E, B1F(N^α,N^α-dimethyl), B25H, desB27, B29K(N^εhexadecanedioyl-gGlu), desB30 human insulin] | 2.7% | 0.18% |  | 6.8 | 
